According to patent US5298502A, “Method and composition for photodynamic treatment and detection of tumors” (priority 1991, dated 1994):
Entries after “also recorded” stand apart in the source; their conditions may differ.

Tests used:
SMT-F tumor = assay: Photodynamic treatment of SMT-F tumor in mice fed the agent (Example 10); type: in vivo, female DBA/2 mice
From the text: In this Example preliminary routine dosage experiments, using agent 6c of Example 6, were made, using female DBA/2 mice, four to six weeks old (14-18 grams). For tumor implantation into these animals, SMT-F tumor was aseptically removed from donor animals and cut into 1 mm^3 fragments. These tumor pieces were placed in Hank's Balanced Salt Solution containing penicillin and streptomycin. Tumor pieces were implanted via a torchar into the center of the right flank of shaved mice. […] The skin covering and surrounding the tumor was shaved and depilated two to three hours prior to light treatment.
The light treatment employed red light centered on 630 nm obtained from 1000 watt Xenon arc lamp system (Oriel Corporation) using a condenser which focused the light into a trifurcated fiberoptic bundle. A collimating lens was placed at the end of each fiberoptic in order to focus the image of the fiberoptic bundle on the treatment area: a spot of […] (1.33 cm^2). The design of the fiberoptic bundle ensured uniform distribution of light over this area. The output spectrum of the arc lamp was tuned to a peak intensity of 630 nm (602-670 nm range) using a water filter, a heat reflecting filter, and a 610 nm long pass filter. Light was delivered at a power density of 135 mW/cm^2. The possibility of tissue hyperthermia induced by this power density was evaluated by placing thermocouples at selected depths into the tumor during treatment, and measuring any temperature rise. No increase in tumor temperature greater than 2.4° C. (final temperature of 37.5°C.) was observed. During the light treatment the mice were restrained without anesthesia in specially designed holders and the tumors and surrounding skin were exposed to light to different degrees, from 0 to 600 J/cm^2. […]
In the course of the experiment the porphyrin fluorescence at 650 nm of the tumors (on exposure to fluorescing-inducing light at 630 nm) was measured with a fluorescence photometer.

chondrosarcoma = assay: Photodynamic treatment of chondrosarcoma in rats fed the agent (Example 9); type: in vivo, Sprague-Dawley rats
Description: Specifically, three Sprague-Dawley rats of average weight 120 g were placed on a diet of feed containing 2000 ppm of the agent for a period of 6 days. On day 3, chondrosarcoma was implanted into the right hind limb of each rat by injecting 0.3 mL of a suspension of the tumor cells (about one million tumor cells). On day 6 the right hind limb of each rat was shaven and depilated, the size of each tumor was measured, and the tumor area and surrounding skin were then exposed to non-thermal doses of 630 nm light for a total of 270 J/cm^2.
In another set of experiments, 20 of the rats were placed on the same diet as above (i.e. feed containing 2000 ppm of agent), provided ad libitum, for 10 days before the treatment with the light, and the injection of the tumor cell suspension was made after the animals had been on the diet for 7 days. Such an injection causes the formation of a tumor having a well defined vascular network within 1 to 2 days. At the time of the treatment with light the tumors had diameters of 5-8 mm and were free of evident necrosis.

[1] = LD50, single oral dose, mice; conditions: mouse, in vivo, single oral dose in corn oil and 5% of the agent, 14-day period
[2] = test system: dark-bleached Chlamydomonas reinhardi mutant y-1; assay: Light-Induced Greening Inhibition Test; type: cell-based; conditions: compounds ionized in water, operative ion negatively charged
Description: Another test of the capacity of a material for disrupting the plasmalemma of plant material is the Light-Induced Greening Inhibition Test described more particularly in Appendix B below.
Stock Cultures of y-1 cells are maintained axenically in liquid culture on Medium A or M, preferably on Medium M, in a 14/10 hour light/dark cycle at 25° C. in Erlenmeyer flasks which are stoppered with polyurethane plugs. The stock cultures are incubated without supplemental aeration on rotary shakers at 125 rpm. The light intensity at the culture level is 120 μE m^-2 sec^-1 (PAR). Under these conditions the cultures are in a semi-synchronous mode of growth until they reach a stationary phase of 2-4×10^6 cells/mL.
Cells from the stationary phase of stock cultures grown in the presence of light (7.5 mL) are transferred to 750 mL of Medium A in an Erlenmeyer flask. […]
An aqueous, 10% sodium dodecyl sulfate solution (250 μL) and methanol (1 mL) is added to each test well and is mixed thoroughly. […] The supernatants are removed and analyzed in a Beckman Model 35 spectrophotometer between 350 nm and 500 nm for the presence of protophorphrin IX, at 668 nm which is the absorption peak of chlorophyll in this solvent system, and at 720 nm to use as a turbidity background reading.
For each well a greenness value is obtained by subtracting the 720 nm reading from the 668 nm reading. […]

[3] = 20 rats, 2000 ppm in feed for 10 days

Cc1nn(-c2cc(NS(C)(=O)=O)c(Cl)cc2Cl)c(=O)n1C(F)F [Agent 6c]
mice with tumors cured (tumor free at 35 days post-treatment) (SMT-F tumor; 4000 ppm in feed for three days, 450 J/cm^2 of light): about 33%
porphyrin fluorescence of the tumors at 650 nm (SMT-F tumor; agent in feed): All animals showed an increase in tumor fluorescence
tumor regrowth between 35 and 91 days post-treatment (SMT-F tumor; mouse, in vivo): No tumor regrowth
tumors that regrew over time (chondrosarcoma; [3]): ~95%
tumors with visible regression on the day following the light treatment (chondrosarcoma; [3]): 75%
effect on surrounding skin and muscle tissue (chondrosarcoma; 2000 ppm in feed for 6 days, 630 nm light 270 J/cm^2): slightly blanched and showed some swelling
occlusion of blood flow to the treatment area (chondrosarcoma; sodium fluoroscin injection immediately after exposure to light): did not cause apparent occlusion of blood flow
tumor regression on the day after light treatment (chondrosarcoma; three rats, 2000 ppm in feed for 6 days, 630 nm light 270 J/cm^2): two of the rats were found to be apparently free of their tumors; also recorded: the third rat showed almost complete regression of its tumor
LD50 at 336 h [1]: > 700 mg/kg
response in light-greening inhibition test [2]: do not respond well in this test
